Counter-ions that a name gives are not always drawn.
Tests used:
beta1-adrenoceptor = beta1-adrenoceptor (Homo sapiens, UniProt P08588); assay: 3H-CGP12177 whole-cell binding, CHO cells expressing human beta1-adrenoceptor; design: expressed in transfected cells; host or cells: CHO cells; settings: 3H-CGP 12177 whole cell binding, mean ± s.e.mean; for Kd: log KD, read-out: Beta 1 Log KD (converted)
Text: (§1) The selectivity of a ligand is given by the ratio of beta-1 to beta-2 KD.

human beta2-adrenoceptor = molecular target: T1, human beta2-adrenoceptor (Homo sapiens, UniProt P07550); assay: 3H-CGP12177 whole-cell binding, CHO cells expressing human beta2-adrenoceptor; settings: 3H-CGP 12177 whole cell binding, mean ± s.e.mean; for Kd: log KD, read-out: Beta 2 Log KD (converted)
T1 construct: expressed in transfected cells; host or cells: CHO cells
T1 sequence (P07550 whole entry): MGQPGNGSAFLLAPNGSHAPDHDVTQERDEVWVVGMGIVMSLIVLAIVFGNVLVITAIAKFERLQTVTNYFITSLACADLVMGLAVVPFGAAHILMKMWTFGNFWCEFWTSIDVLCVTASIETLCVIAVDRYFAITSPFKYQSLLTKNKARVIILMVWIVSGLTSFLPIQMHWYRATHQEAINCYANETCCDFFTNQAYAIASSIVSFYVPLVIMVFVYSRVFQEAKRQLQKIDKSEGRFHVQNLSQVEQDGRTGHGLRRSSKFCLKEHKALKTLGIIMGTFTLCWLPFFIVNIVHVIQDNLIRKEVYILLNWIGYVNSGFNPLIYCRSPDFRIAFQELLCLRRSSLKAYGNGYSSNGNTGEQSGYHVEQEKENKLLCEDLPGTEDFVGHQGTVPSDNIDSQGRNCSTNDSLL
Text: as §1

Sequence of beta1-adrenoceptor (P08588 whole entry): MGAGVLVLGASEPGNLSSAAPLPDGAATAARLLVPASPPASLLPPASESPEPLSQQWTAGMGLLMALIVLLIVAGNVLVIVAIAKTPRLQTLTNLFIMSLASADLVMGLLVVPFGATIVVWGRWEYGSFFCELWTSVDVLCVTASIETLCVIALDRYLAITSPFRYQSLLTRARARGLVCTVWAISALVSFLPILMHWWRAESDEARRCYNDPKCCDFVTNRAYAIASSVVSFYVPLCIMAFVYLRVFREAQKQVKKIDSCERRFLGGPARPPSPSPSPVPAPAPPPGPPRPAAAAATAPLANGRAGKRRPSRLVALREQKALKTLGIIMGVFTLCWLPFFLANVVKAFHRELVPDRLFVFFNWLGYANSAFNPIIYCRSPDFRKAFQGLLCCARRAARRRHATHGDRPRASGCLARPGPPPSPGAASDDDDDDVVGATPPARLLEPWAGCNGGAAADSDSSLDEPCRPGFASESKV

Compound	melting point [°C]	Kd (beta1-adrenoceptor) [nM]	Kd (human beta2-adrenoceptor) [nM]	Beta 2 Log KD (human beta2-adrenoceptor)	Beta 1 Log KD (beta1-adrenoceptor)
O=C(NCCNCC(O)COc1ccc(OCCOCC2CC2)cc1)Nc1ccc(OCc2ccccc2)cc1 (stereo not drawn) (hydrate or solvate) [45a]	131 to 133	–	–	–	–
OC(CNCCOc1cccc(Cl)c1)COc1ccc(OCCOC2CCCC2)cc1 (stereo not drawn) (hydrate or solvate) [65a]	73.5	–	–	–	–
OC(CNCCOc1ccc(-c2ccccc2)cc1)COc1ccc(OCCOC2CCCC2)cc1 (stereo not drawn) (hydrate or solvate) [65d]	154 to 155	–	–	–	–
Oc1ccc(OCCNCC(O)COc2ccc(OCCOC3CCCC3)cc2)cc1 (stereo not drawn) (hydrate or solvate) [65e]	101 to 103	–	–	–	–
Oc1ccc(OCCCNCC(O)COc2ccc(OCCOC3CCCC3)cc2)cc1 (stereo not drawn) (hydrate or solvate) [65f]	136	–	–	–	–
CCOCCOc1ccc(OCC(O)CNCCNC(=O)Nc2ccc(OCc3ccccc3)cc2)cc1 (stereo not drawn) [45d]	–	91.2	–	–	–
CCOCCOc1ccc(OCC(O)CNCCNC(=O)Nc2ccc(O)cc2)cc1 (stereo not drawn) [46d]	96 to 98	83.2	> 100000	–	–
CC(C)OCCOc1ccc(OCC(O)CNCCNC(=O)Nc2cccc(Cl)c2)cc1 (stereo not drawn) [46k, 1-(2-(3-(4-(2-(Isopropyloxy)ethoxy)phenoxy)-2-hydroxypropylamino)ethyl)-3-(3-chlorophenyl)urea]	–	21.4	5130	–	–
CC(C)OCCOc1ccc(OCC(O)CNCCNC(=O)Nc2ccc(O)cc2)cc1 (stereo not drawn) [46l, 1-(2-(3-(4-(2-(Isopropyloxy)ethoxy)phenoxy)-2-hydroxypropylamino)ethyl)-3-(4-hydroxyphenyl)urea]	–	58.9	15500	–	–
CCCOCCOc1ccc(OCC(O)CNCCNC(=O)Nc2cccc(Cl)c2)cc1 (stereo not drawn) [46m, 1-(2-(3-(4-(2-(Propyloxy)ethoxy)phenoxy)-2-hydroxypropylamino)ethyl)-3-(3-chlorophenyl)urea]	–	16.2	3720	–	–
CCCOCCOc1ccc(OCC(O)CNCCNC(=O)Nc2ccc(O)cc2)cc1 (stereo not drawn) [46n, 1-(2-(3-(4-(2-(Propyloxy)ethoxy)phenoxy)-2-hydroxypropylamino)ethyl)-3-(4-hydroxyphenyl)urea]	–	37.2	13500	–	–
O=C(NCCNCC(O)COc1ccc(OCCOC2CC2)cc1)Nc1cccc(Cl)c1 (stereo not drawn) [46o, 1-(3-Chlorophenyl)-3-(2-(3-(4-(2-cyclopropoxyethoxy)phenoxy)-2-hydroxypropylamino)ethyl)urea]	–	13.8	2950	–	–
O=C(NCCNCC(O)COc1ccc(OCCOC2CC2)cc1)Nc1ccc(O)cc1 (stereo not drawn) [46p, 1-(2-(3-(4-(2-Cyclopropoxyethoxy)phenoxy)-2-hydroxypropylamino)ethyl)-3-(4-hydroxyphenyl)urea]	–	63.1	25700	–	–
O=C(NCCNCC(O)COc1ccc(OCCOC2CCCC2)cc1)Nc1cccc(C(=O)O)c1 (stereo not drawn) [47aa, 3-(3-(2-(3-(4-(2-(Cyclopentyloxy)ethoxy)phenoxy)-2-hydroxypropylamino)ethyl)ureido)benzoic acid hydrochloride]	–	77.6	43650 ± 400	–	–
O=C(NCCNCC(O)COc1ccc(OCCOC2CCCC2)cc1)Nc1ccc(C(=O)O)cc1 (stereo not drawn) [47bb, 4-(3-(2-(3-(4-(2-(Cyclopentyloxy)ethoxy)phenoxy)-2-hydroxypropylamino)ethyl)ureido)benzoic acid hydrochloride]	–	105	43700 ± 701	–	–
O=C(NCCNCC(O)COc1ccc(OCCOC2CCCC2)cc1)Nc1ccc([N+](=O)[O-])cc1 (stereo not drawn) [47w, 1-(2-(3-(4-(2-(Cyclopentyloxy)ethoxy)phenoxy)-2-hydroxypropylamino)ethyl)-3-(4-nitrophenyl)urea]	–	18.6	1780	–	–
O=C(NCCNCC(O)COc1ccc(OCCOC2CCCC2)cc1)Nc1ccc(OCCF)cc1 (stereo not drawn) [47x, 1-(2-(3-(4-(2-(Cyclopentyloxy)ethoxy)phenoxy)-2-hydroxypropylamino)ethyl)-3-(4-(2-fluoroethoxy)phenyl)urea]	–	17.8	1820	–	–
COC(=O)c1cccc(NC(=O)NCCNCC(O)COc2ccc(OCCOC3CCCC3)cc2)c1 (stereo not drawn) [47y, Methyl 3-(3-(2-(3-(4-(2-(cyclopentyloxy)ethoxy)phenoxy)-2-hydroxypropylamino)ethyl)ureido)benzoate]	–	12.3	1100	–	–
COC(=O)c1ccc(NC(=O)NCCNCC(O)COc2ccc(OCCOC3CCCC3)cc2)cc1 (stereo not drawn) [47z, Methyl 4-(3-(2-(3-(4-(2-(cyclopentyloxy)ethoxy)phenoxy)-2-hydroxypropylamino)ethyl)ureido)benzoate]	–	43.7	2040	–	–
COc1ccc(NC(=O)NCCNCC(O)COc2ccc(OCCOC3CCCC3)cc2)cc1Cl (stereo not drawn) [54b, 1-(3-Chloro-4-methoxyphenyl)-3-(2-(3-(4-(2-(cyclopentyloxy)ethoxy)phenoxy)-2-hydroxypropylamino)ethyl)urea]	–	19.5	1510	–	–
O=C(NCCNCC(O)COc1ccc(OCCOC2CCCC2)cc1)Nc1ccc(O)c(Cl)c1 (stereo not drawn) [54c, 1-(3-Chloro-4-hydroxyphenyl)-3-(2-(3-(4-(2-(cyclopentyloxy)ethoxy)phenoxy)-2-hydroxypropylamino)ethyl)urea]	–	7.24	1020	–	–
Nc1ccccc1NC(=O)NCCNCC(O)COc1ccc(OCCOC2CCCC2)cc1 (stereo not drawn) [60a]	–	75.9	2190	–	–
Nc1cccc(NC(=O)NCCNCC(O)COc2ccc(OCCOC3CCCC3)cc2)c1 (stereo not drawn) [60b]	–	20	4170	–	–
Nc1ccc(NC(=O)NCCNCC(O)COc2ccc(OCCOC3CCCC3)cc2)cc1 (stereo not drawn) [60c]	–	29.5	3630	–	–
O=C(NCCNCC(O)COc1ccc(OCCOC2CCCC2)cc1)c1ccccc1 (stereo not drawn) [62a]	149 to 152	69.2	1150	–	–

Compound	melting point [°C]	Kd (beta1-adrenoceptor) [nM]	Kd (human beta2-adrenoceptor) [nM]	Beta 2 Log KD (human beta2-adrenoceptor)	Beta 1 Log KD (beta1-adrenoceptor)
Nc1ccccc1C(=O)NCCNCC(O)COc1ccc(OCCOC2CCCC2)cc1 (stereo not drawn) [62b]	107 to 109	17.8	309	–	–
Nc1cccc(C(=O)NCCNCC(O)COc2ccc(OCCOC3CCCC3)cc2)c1 (stereo not drawn) [62c]	105 to 107.5	174	4470	–	–
Nc1ccc(C(=O)NCCNCC(O)COc2ccc(OCCOC3CCCC3)cc2)cc1 (stereo not drawn) [62d]	67 to 69	13.8	5500	–	–
CC(=O)Oc1ccc(C(=O)NCCNCC(O)COc2ccc(OCCOC3CCCC3)cc2)cc1 (stereo not drawn) [62e, 4-(2-(3-(4-(2-(Cyclopentyloxy)ethoxy)phenoxy)-2-hydroxypropylamino)ethylcarbamoyl)phenyl acetate]	–	–	–	−6.27 ± 0.03	−8.42 ± 0.02
COc1cc(C(=O)NCCNCC(O)COc2ccc(OCCOC3CCCC3)cc2)ccc1O (stereo not drawn) [62f]	–	4.9	1410	–	–
O=C(Cc1ccccc1F)NCCNCC(O)COc1ccc(OCCOC2CCCC2)cc1 (stereo not drawn) [62g]	122 to 124	2.4	97.7	–	–
O=C(Cc1cccc(F)c1)NCCNCC(O)COc1ccc(OCCOC2CCCC2)cc1 (stereo not drawn) [62h]	116.5 to 118	6.76	110	–	–
Cc1cccc(CC(=O)NCCNCC(O)COc2ccc(OCCOC3CCCC3)cc2)c1 (stereo not drawn) [62q]	–	26.9	302	–	–
COc1ccc(CC(=O)NCCNCC(O)COc2ccc(OCCOC3CCCC3)cc2)cc1 (stereo not drawn) [62t]	–	9.77	91.2	–	–
O=C(Cc1ccccc1O)NCCNCC(O)COc1ccc(OCCOC2CCCC2)cc1 (stereo not drawn) [62u]	–	19.1	138	–	–
CC(=O)Oc1ccc(CC(=O)NCCNCC(O)COc2ccc(OCCOC3CCCC3)cc2)cc1 (stereo not drawn) [62w, 4-(2-(2-(3-(4-(2-(Cyclopentyloxy)ethoxy)phenoxy)-2-hydroxypropylamino)ethylamino)-2-oxoethyl)phenyl acetate]	–	–	–	−6.59 ± 0.02	−8.09 ± 0.03
OC(CNCCOc1cccc(Cl)c1)COc1ccc(OCCOC2CCCC2)cc1 (stereo not drawn) [65a]	–	74.1	776	–	–
OC(CNCCOc1ccccc1-c1ccccc1)COc1ccc(OCCOC2CCCC2)cc1 (stereo not drawn) [65c]	–	107	741	–	–
OC(CNCCOc1ccc(-c2ccccc2)cc1)COc1ccc(OCCOC2CCCC2)cc1 (stereo not drawn) [65d]	–	398	79400	–	–
Oc1ccc(OCCNCC(O)COc2ccc(OCCOC3CCCC3)cc2)cc1 (stereo not drawn) [65e]	–	5.75	204	–	–
Oc1ccc(OCCCNCC(O)COc2ccc(OCCOC3CCCC3)cc2)cc1 (stereo not drawn) [65f]	–	34.7	794	–	–
NC(=O)c1ccccc1OCCNCC(O)COc1ccc(OCCOC2CCCC2)cc1 (stereo not drawn) [67a]	–	49	1050	–	–
NC(=O)c1cccc(OCCNCC(O)COc2ccc(OCCOC3CCCC3)cc2)c1 (stereo not drawn) [67b]	–	18.2	1000	–	–
NC(=O)c1ccc(OCCNCC(O)COc2ccc(OCCOC3CCCC3)cc2)cc1 (stereo not drawn) [67c]	–	3.31	851	–	–
OC(CNCCOc1ccc(F)cc1)COc1ccc(OCCOC2CCCC2)cc1 (stereo not drawn) [67d]	–	9.33	1020	–	–
COc1ccc(OCCNCC(O)COc2ccc(OCCOC3CCCC3)cc2)cc1 (stereo not drawn) [67e]	–	8.91	794	–	–
O=C(NCCNC[C@@H](O)COc1ccc(OCCOC2CCCC2)cc1)Nc1cccc(Cl)c1 [(R)-47l, (R)-1-(2-(3-(4-(2-(Cyclopentyloxy)ethoxy)phenoxy)-2-hydroxypropylamino)ethyl)-3-(3-chlorophenyl)urea]	–	186	5890	–	–
O=C(NCCNC[C@H](O)COc1ccc(OCCOC2CCCC2)cc1)Nc1cccc(Cl)c1 [(S)-47l, (S)-1-(2-(3-(4-(2-(Cyclopentyloxy)ethoxy)phenoxy)-2-hydroxypropylamino)ethyl)-3-(3-chlorophenyl)urea]	–	2.82	1150	–	–
NC(=O)c1cc(OCCNCC(O)COc2ccc(OCCOC3CCCC3)cc2)ccc1O (stereo not drawn) [compound 72, 5-(2-(3-(4-(2-(Cyclopentyloxy)ethoxy)phenoxy)-2-hydroxypropylamino)ethoxy)-2-hydroxybenzamide]	–	0.776	25.1	–	–
